Assay results as given in patent US5798336A, “Antimicrobial peptides” (priority 1995, dated 1998).
Where a SMILES comes first, the peptide text is derived from it.

Assays:
S. aureus strain 8325-4 [1] = conditions: for % Survival of S. aureus: Table 3, all peptides at 5×10^-4 M
P. aeruginosa ATCC 27853 = conditions: ATCC 27853, 500
[2] = system: N. gonorrhoeae strain WS1; conditions: strain WS1, 500
S. aureus strain 8325-4 [3] = conditions: strain 8325-4, 500

Row | Compound | % Survival of S. aureus (S. aureus strain 8325-4 [1]) | Log Kill (500 μg/ml) P. aeruginosa ATCC 27853 (P. aeruginosa ATCC 27853) | Log Kill (500 μg/ml) N. gonorrhoeae strain WS1 [2] | also measured
1 | H^3m PQYNQR | 18.3% | – | – | –
2 | CC(C)C[C@H](NC(=O)[C@@H](NC(=O)CNC(=O)[C@@H]1CCCN1C(=O)[C@@H](N)CCCNC(=N)N)[C@@H](C)O)C(=O)N[C@@H](CS)C(=O)N[C@H](C(=O)N[C@H](C(=O)N[C@@H](C)C(=O)NCC(=O)N[C@@H](Cc1c[nH]c2ccccc12)C(=O)NCC(=O)N[C@@H](CCCNC(=N)N)C(=O)O)C(C)C)[C@@H](C)O [CG 117-129] (H-RPGTLCTVAGWGR-OH) | – | 0.86 log | 0.05 log | Log Kill (500 μg/ml) S. aureus strain 8325-4 (S. aureus strain 8325-4 [3]): 0 log
3 | H^1m QYNQR | 37.3% | – | – | –
4 | CC[C@H](C)[C@H](NC(=O)[C@H](CCC(N)=O)NC(=O)[C@H](CCCNC(=N)N)NC(=O)[C@H](CCCNC(=N)N)NC(=O)[C@@H]1CCCN1C(=O)[C@H](CC(=O)O)NC(=O)[C@H](Cc1ccc(O)cc1)NC(=O)[C@H](CO)NC(=O)CN)C(=O)N[C@@H](CS)C(=O)N[C@H](C(=O)NCC(=O)N[C@@H](CC(=O)O)C(=O)N[C@@H](CCCNC(=N)N)C(=O)N[C@@H](CCCNC(=N)N)C(=O)N[C@@H](CCC(=O)O)C(=O)N[C@@H](CCCNC(=N)N)C(=O)N[C@@H](CCCCN)C(=O)N[C@@H](C)C(=O)N[C@@H](C)C(=O)O)C(C)C [CG 157-176] (H-GSYDPRRQICVGDRRERKAA-OH) | – | 1.02 log | -0.18 log | –
5 | H^Benzyl PQYNQR | 99.0% | – | – | –
6 | CC(C)C[C@H](NC(=O)[C@@H](NC(=O)[C@H](Cc1ccccc1)NC(=O)[C@H](CC(=O)O)NC(=O)[C@H](CCC(=O)O)NC(=O)[C@H](CCCNC(=N)N)NC(=O)[C@@H](NC(=O)[C@H](CC(C)C)NC(=O)[C@H](Cc1ccccc1)NC(=O)CNC(=O)CNC(=O)[C@H](CS)NC(=O)[C@H](CCCNC(=N)N)NC(=O)[C@H](CO)NC(=O)[C@H](CCC(N)=O)NC(=O)CNC(=O)[C@H](C)NC(=O)[C@@H]1CCCN1C(=O)[C@H](CO)NC(=O)[C@@H](N)CCC(N)=O)C(C)C)C(C)C)C(=O)O [CG 21-40] (H-QSPAGQSRCGGFLVREDFVL-OH) | – | -0.034 log | 0.05 log | –
7 | CC[C@H](C)[C@H](NC(=O)CNC(=O)[C@H](Cc1c[nH]cn1)NC(=O)[C@H](C)NC(=O)[C@@H](NC(=O)[C@H](CC(N)=O)NC(=O)[C@H](CC(N)=O)NC(=O)[C@H](CS)NC(=O)[C@H](CC(C)C)NC(=O)[C@H](CC(C)C)NC(=O)[C@@H]1CCCN1C(=O)CNC(=O)CNC(=O)[C@H](CO)NC(=O)[C@H](CC(=O)O)NC(=O)CNC(=O)[C@H](CCCCN)NC(=O)[C@@H](N)Cc1ccccc1)C(C)C)C(=O)N[C@H](C(=O)N[C@@H](CO)C(=O)N[C@@H](Cc1ccc(O)cc1)C(=O)O)C(C)C [CG 177-197] (H-FKGDSGGPLLCNNVAHGIVSY-OH) | – | -0.79 log | 0.68 log | –
8 | CC(C)C[C@H](NC(=O)CNC(=O)[C@H](CCC(=O)O)NC(=O)[C@H](CCC(N)=O)NC(=O)[C@H](C)NC(=O)[C@H](CCCNC(=N)N)NC(=O)[C@@H]1CCCN1C(=O)[C@H](CC(C)C)NC(=O)[C@H](C)NC(=O)[C@@H](NC(=O)[C@@H]1CCCN1C(=O)[C@H](CC(N)=O)NC(=O)[C@@H](NC(=O)[C@H](CC(N)=O)NC(=O)[C@H](CCCNC(=N)N)NC(=O)[C@H](CC(N)=O)NC(=O)[C@H](CCCNC(=N)N)NC(=O)[C@H](CCCNC(=N)N)NC(=O)[C@@H](NC(=O)[C@@H](N)CCCNC(=N)N)C(C)C)C(C)C)C(C)C)C(=O)O [CG 97-116] (H-RVRRNRNVNPVALPRAQEGL-OH) | – | 5.93 log | -0.21 log | Log Kill (500 μg/ml) P. aeruginosa ATCC 278533 (P. aeruginosa ATCC 27853): 0.22 log; Log Kill (500 μg/ml) N. gonorrhoeae strain WSI [2]: 0.2 log; Log Kill (500 μg/ml) S. aureus strain 8325-4 (S. aureus strain 8325-4 [3]): -0.1 log
9 | CC[C@H](C)[C@H](N)C(=O)N[C@H](C(=O)NCC(=O)NCC(=O)N[C@@H](CCCNC(=N)N)C(=O)O)C(C)C [IVGGR] (H-IVGGR-OH) | – | – | – | ED50 (S. aureus strain 8325-4 [1]): > 875 µM
